From ChEMBL document CHEMBL1127124, “Selective inactivation of monoamine oxidase B by aminoethyl 3-chlorobenzyl ether” (Bioorg Med Chem Lett, 1993)

Key:
[1] = biological target: T1, Amine oxidase [flavin-containing] B (Bos taurus, UniProt P56560); assay: Tested for enzyme affinity with purified bovine liver MAO B
T1 sequence (P56560 whole entry): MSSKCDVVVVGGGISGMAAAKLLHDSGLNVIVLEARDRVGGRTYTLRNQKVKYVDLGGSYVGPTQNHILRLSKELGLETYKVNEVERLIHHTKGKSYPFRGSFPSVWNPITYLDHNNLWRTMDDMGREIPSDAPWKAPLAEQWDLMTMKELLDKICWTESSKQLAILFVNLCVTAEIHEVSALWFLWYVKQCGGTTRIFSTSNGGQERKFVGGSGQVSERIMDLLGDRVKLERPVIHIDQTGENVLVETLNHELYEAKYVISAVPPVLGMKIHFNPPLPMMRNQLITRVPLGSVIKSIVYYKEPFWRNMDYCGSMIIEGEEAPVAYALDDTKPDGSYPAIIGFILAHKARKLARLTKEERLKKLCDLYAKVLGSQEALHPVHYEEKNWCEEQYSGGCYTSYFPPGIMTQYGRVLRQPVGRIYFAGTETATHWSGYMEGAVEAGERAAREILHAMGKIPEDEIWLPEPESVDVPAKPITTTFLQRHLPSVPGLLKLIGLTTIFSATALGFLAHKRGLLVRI

[2] = biological target: T1, Amine oxidase [flavin-containing] B; assay: Tested for enzyme kinetic activity with purified bovine liver MAO B; settings: cattle
[3] = biological target: T2, Amine oxidase [flavin-containing] A (Bos taurus, UniProt P21398); assay: Tested for enzyme kinetic activity with purified bovine liver MAO A; settings: cattle
T2 sequence (P21398 whole entry): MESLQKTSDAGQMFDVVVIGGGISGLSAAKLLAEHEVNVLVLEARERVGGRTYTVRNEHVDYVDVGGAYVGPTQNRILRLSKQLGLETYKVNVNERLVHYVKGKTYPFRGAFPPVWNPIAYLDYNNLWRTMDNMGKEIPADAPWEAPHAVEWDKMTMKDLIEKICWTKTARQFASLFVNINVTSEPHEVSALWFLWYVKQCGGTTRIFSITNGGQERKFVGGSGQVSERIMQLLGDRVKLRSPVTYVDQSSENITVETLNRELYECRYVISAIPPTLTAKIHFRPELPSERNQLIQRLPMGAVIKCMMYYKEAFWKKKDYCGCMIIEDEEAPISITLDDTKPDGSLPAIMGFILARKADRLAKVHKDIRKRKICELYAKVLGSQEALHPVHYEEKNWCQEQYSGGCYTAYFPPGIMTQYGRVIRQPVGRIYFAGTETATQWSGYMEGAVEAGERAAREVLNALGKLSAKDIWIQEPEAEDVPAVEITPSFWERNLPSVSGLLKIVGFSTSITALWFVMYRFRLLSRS

[4] = biological target: T2, Amine oxidase [flavin-containing] A; assay: Tested for enzyme affinity with purified bovine liver MAO A

Compound: NCCOCc1cccc(Cl)c1
- Ki [1]: 5 µM
- kinact [2]: 0.0117 s⁻¹
- kinact [3]: 0.000467 s⁻¹
- Ki [4]: 340 µM
